Data published in US8519184B2, “Synthesis of rare earth metal extractant” (Shin-Etsu Chemical Co., Ltd., priority 2010, dated 2013).
In brackets after ≈: the same amount, converted by molar mass.

Columns and labels:
[1] = Extractant state of reaction product; assay type: physicochemical; settings: Table 2; reaction product at varied B/A (dioctylamine/diglycolic anhydride)
Procedure: An amount (designated A in Table 2) of diglycolic anhydride was suspended in 40 mL of hexane. Separately, an amount (designated B in Table 2) of dioctylamine was dissolved in 10 mL of hexane. With stirring, the dioctylamine solution was added dropwise to the diglycolic anhydride suspension. Stirring was continued at room temperature until it was confirmed that the solution became clear as a result of reaction of diglycolic anhydride. The reaction product was obtained in hexane solution. Table 2 also reports a ratio B/A that is a ratio of the amount (B mmol) of dioctylamine to the amount (A mmol) of diglycolic anhydride.
An aqueous solution containing mixed rare earth metals was prepared by dissolving praseodymium chloride and neodymium chloride in water in a molar ratio Pr:Nd of 1:1 and a concentration of 0.1 mol/L of Pr+Nd to form an aqueous solution, which might become an aqueous phase. A separatory funnel was charged with 100 mL of the organic solution and 100 mL of the aqueous solution and shaken at 20° C. for about 20 minutes to effect extraction. After equilibrium was reached, the liquid was allowed to separate into organic and aqueous phases. A separatory funnel was charged with 100 mL of the thus separated organic phase and 100 mL of 5N hydrochloric acid and shaken at 20° C. for about 20 minutes whereby the rare earth element once extracted into the organic phase was back-extracted into the aqueous hydrochloric acid solution. The concentrations of praseodymium and neodymium in the aqueous phase and the back-extracted aqueous hydrochloric acid solution were measured by an ICP atomic emission spectrometer ICP-7500 (Shimadzu Corp.).

[2] = Extraction/separation test (solvent extraction, Nd/Pr); settings: 20° C.
Procedure: An extraction/separation test was performed. […] The reaction product solution was diluted with hexane to form an organic solution having a DODGAA concentration of 0.3 mol/L, which might become an organic phase.
An extraction/separation test was performed. The concentration of DODGAA in the reaction product solution was computed from the amounts of reactants and synthesis medium. The reaction product solution was diluted with hexane to form an organic solution having a DODGAA concentration of 0.3 mol/L, which might become an organic phase. […]
An aqueous solution containing mixed rare earth metals was prepared by dissolving praseodymium chloride and neodymium chloride in water in a molar ratio Pr:Nd of 1:1 and a concentration (mol/L) of Pr+Nd as shown in Table 4 to form an aqueous solution which might become an aqueous phase. […] The concentrations of praseodymium and neodymium in the aqueous phase and the back-extracted aqueous hydrochloric acid solution were measured by an ICP atomic emission spectrometer ICP-7500 (Shimadzu Corp.).

[3] = cited from earlier work
[4] = Table 1, DODGAA 0.3 mol/L in hexane organic phase, Pr+Nd 0.1 mol/L aqueous, about 20 minutes

SMILES | Extractant state [1] | further results
CCCCCCCCN(CCCCCCCC)C(=O)COCC(=O)O [Example 5, N,N-dioctyl-3-oxapentane-1,5-amic acid] | solid | –
CCCCCCCCN(CCCCCCCC)C(=O)COCC(=O)O [Example 1, N,N-dioctyl-3-oxapentane-1,5-amic acid] | – | Nd/Pr separation factor [2, 4]: satisfactory
CCCCCCCCN(CCCCCCCC)C(=O)COCC(=O)O [DODGAA, N,N-dioctyl-3-oxapentane-1,5-amic acid] | – | solubility in water [3]: 6.2 µM (≈ 2.22 µg/mL)
CCCCCCCCN(CCCCCCCC)C(=O)COCC(=O)O [Example 2, N,N-dioctyl-3-oxapentane-1,5-amic acid] | liquid | –
CCCCCCCCN(CCCCCCCC)C(=O)COCC(=O)O [Comparative Example 2, N,N-dioctyl-3-oxapentane-1,5-amic acid] | liquid | –
CCCCCCCCN(CCCCCCCC)C(=O)COCC(=O)O [Example 3, N,N-dioctyl-3-oxapentane-1,5-amic acid] | liquid | Nd/Pr separation factor ([2]; Table 2, varied B/A, DODGAA 0.3 mol/L in hexane, Pr+Nd 0.1 mol/L): satisfactory
CCCCCCCCN(CCCCCCCC)C(=O)COCC(=O)O [Comparative Example 1, N,N-dioctyl-3-oxapentane-1,5-amic acid] | – | Nd/Pr separation factor [2, 4]: satisfactory
CCCCCCCCN(CCCCCCCC)C(=O)COCC(=O)O [Example 4, N,N-dioctyl-3-oxapentane-1,5-amic acid] | liquid | –
